The values below come from PubChem BioAssay (NCI).

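In this assay, cells in 96-well plates receive the compound at five concentrations for 48 hours. Endpoints are linearly interpolated between the surrounding concentrations. GI50 is the concentration that inhibits growth by half. Definition used: TGI = concentration required for complete inhibition of growth.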 Bounds are passed on as bounds.

Test systems include EKVX NSCLC; OVCAR-5 ovarian; SF-539 CNS; 786-0 renal; UO-31 renal; OVCAR-8 ovarian; HOP-92 NSCLC; SR leukemia; A549 NSCLC; MCF7 breast.
Test in all cases: NCI tumour cell line growth inhibition, 48 h

For `CCOC(=O)C1Cc2c(ccc(OC)c2OC)C(=O)C1N` (stereo unspecified), the TGI is 36.1 µM with EKVX NSCLC; greater than 100 µM in the assay on OVCAR-5 ovarian; greater than 100 µM in the assay on SF-539 CNS; greater than 100 µM in the assay with 786-0 renal; greater than 100 µM with UO-31 renal; greater than 100 µM with OVCAR-8 ovarian. Besides, the TGI with HOP-92 NSCLC, in the assay on SR leukemia and in the assay with A549 NSCLC was greater than 100 µM each time.
On to `O=C1c2ccccc2C(=O)N1/N=C\c1ccc(Br)cc1`, for which the GI50 with EKVX NSCLC, in the assay on OVCAR-5 ovarian, with SF-539 CNS, with 786-0 renal, with UO-31 renal and in the assay on OVCAR-8 ovarian was greater than 100 µM in each case. Further, the GI50 with HOP-92 NSCLC, in the assay on SR leukemia and in the assay on A549 NSCLC was greater than 100 µM each time. The TGI in the assay on EKVX NSCLC, with OVCAR-5 ovarian, with SF-539 CNS, with 786-0 renal, in the assay with UO-31 renal and in the assay on OVCAR-8 ovarian was greater than 100 µM in each case. The TGI in the assay with HOP-92 NSCLC, in the assay on SR leukemia and in the assay on A549 NSCLC was greater than 100 µM each time.
Regarding `COc1cc(C(=O)C/C(CCC(=O)Nc2ccccc2[N+](=O)[O-])=N\NC(=O)C(N)=O)ccc1O`, the TGI in the assay with EKVX NSCLC, in the assay on OVCAR-5 ovarian, with SF-539 CNS, in the assay with 786-0 renal, in the assay on UO-31 renal and with OVCAR-8 ovarian was greater than 100 µM in each case. In addition, the TGI in the assay on HOP-92 NSCLC, in the assay on SR leukemia and with A549 NSCLC was greater than 100 µM in each case.
On to `OCCN1CCN(CCO)Cc2ccccc2OCCOc2ccccc2C1`, for which the TGI in the assay on EKVX NSCLC, in the assay on OVCAR-5 ovarian, in the assay on SF-539 CNS, in the assay with 786-0 renal, with UO-31 renal and in the assay with OVCAR-8 ovarian was greater than 100 µM each time. The TGI with HOP-92 NSCLC, in the assay on SR leukemia and in the assay on A549 NSCLC was greater than 100 µM each time.
In the case of `O=C1C(=O)c2cc([N+](=O)[O-])ccc2-c2ccccc21`, the GI50 in the assay with EKVX NSCLC is 1.62 µM; in the assay with OVCAR-5 ovarian, 1.82 µM; in the assay on SF-539 CNS, 1.82 µM; with MCF7 breast it was 1.82 µM; in the assay on 786-0 renal, 1.97 µM; in the assay with UO-31 renal, 1.45 µM. For the same compound, the figures for the GI50 with OVCAR-8 ovarian, with HOP-92 NSCLC and in the assay on A549 NSCLC were 1.71 µM, 1.66 µM and 1.9 µM, respectively. Moreover, the TGI worked out at 3.16 µM with EKVX NSCLC; 3.36 µM with OVCAR-5 ovarian; 3.24 µM in the assay with SF-539 CNS; 3.64 µM with MCF7 breast; 3.39 µM in the assay with 786-0 renal; 2.86 µM in the assay on UO-31 renal. Besides, the figures for the TGI in the assay with OVCAR-8 ovarian, in the assay with HOP-92 NSCLC and in the assay on A549 NSCLC were 3.6 µM, 3.12 µM and 3.56 µM, respectively.
Regarding `Cc1ccc(-c2csc(N(C(=O)N3CCN(c4cc5c(cc4F)c(=O)c(C(=O)O)cn5C4CC4)CC3)c3ccccc3)n2)cc1`, the GI50 in the assay with EKVX NSCLC is 0.381 µM; in the assay with 786-0 renal it was 0.292 µM; with OVCAR-8 ovarian, 0.405 µM; with HOP-92 NSCLC, 0.213 µM; in the assay with SR leukemia, 0.238 µM; with A549 NSCLC, 0.372 µM. Also, the TGI was greater than 100 µM in the assay with EKVX NSCLC; 1.83 µM in the assay with 786-0 renal; greater than 100 µM in the assay with OVCAR-8 ovarian; 0.798 µM in the assay on HOP-92 NSCLC; greater than 100 µM in the assay on SR leukemia; greater than 100 µM in the assay with A549 NSCLC.
Consider `CCCCCCCCN(CCCCCCCC)C(=N)c1ccnc2ccccc12`, for which the GI50 with EKVX NSCLC was 1.28 µM; in the assay on OVCAR-5 ovarian, 1.5 µM; in the assay with SF-539 CNS it was 1.54 µM; in the assay with MCF7 breast it was 0.261 µM; with 786-0 renal, 1.02 µM; with UO-31 renal, 0.953 µM. Also, the GI50 is 1.58 µM with OVCAR-8 ovarian, 1.02 µM in the assay with HOP-92 NSCLC and 1.58 µM in the assay with A549 NSCLC. The TGI in the assay with EKVX NSCLC is 2.68 µM; in the assay with OVCAR-5 ovarian, 3.05 µM; in the assay on SF-539 CNS it was 2.99 µM; in the assay with MCF7 breast, 1.21 µM; with 786-0 renal, 2.37 µM; in the assay with UO-31 renal, 2.29 µM. Besides, the TGI in the assay with OVCAR-8 ovarian was determined as 3.27 µM; in the assay with HOP-92 NSCLC, 2.32 µM; in the assay on A549 NSCLC it was 3.11 µM.
With `Cc1nc(NC(=S)NC(=O)c2ccc(Cl)c(Cl)c2)sc1C(=O)/C=C/c1ccccc1[N+](=O)[O-]`, the TGI came out at 91.6 µM in the assay on EKVX NSCLC; 40.5 µM in the assay on SF-539 CNS; 33.5 µM in the assay on 786-0 renal; 45.6 µM with UO-31 renal; 63.5 µM in the assay on OVCAR-8 ovarian; 24.2 µM with HOP-92 NSCLC. Also, the TGI is 63.1 µM with SR leukemia and 60.3 µM with A549 NSCLC.
As for `Cc1cc(N(CCC#N)CCC#N)ccc1/C=C1/CN(N2C(=O)/C(=C/c3ccc(N(CCC#N)CCC#N)cc3C)N=C2c2ccccc2)C(c2ccccc2)=N1`, the TGI with EKVX NSCLC, with OVCAR-5 ovarian, in the assay on SF-539 CNS, in the assay with 786-0 renal, in the assay on UO-31 renal and in the assay with OVCAR-8 ovarian was greater than 100 µM each time. Further, the TGI with HOP-92 NSCLC, in the assay on SR leukemia and in the assay with A549 NSCLC was greater than 100 µM in each case.
On to `O=c1c(O)c(-c2ccc(O)c(O)c2)oc2cc(O)ccc12`, for which the TGI was 65.8 µM in the assay with EKVX NSCLC; 42.1 µM in the assay on OVCAR-5 ovarian; 26.7 µM in the assay with SF-539 CNS; greater than 91.5 µM in the assay with 786-0 renal; 23.4 µM in the assay on UO-31 renal; 56.3 µM with OVCAR-8 ovarian. Further, the TGI in the assay on HOP-92 NSCLC is 71.8 µM; with SR leukemia it was 99.8 µM; in the assay with A549 NSCLC it was greater than 100 µM.
In the case of `CC1=CC(=O)C(C)(C2=NC(C)(C)CO2)c2ccccc21` (stereo unspecified), the TGI in the assay on EKVX NSCLC, with SF-539 CNS, with 786-0 renal, in the assay on UO-31 renal, with OVCAR-8 ovarian and with HOP-92 NSCLC was greater than 100 µM each time. The TGI in the assay with SR leukemia and in the assay with A549 NSCLC was greater than 100 µM each time.
With `Nn1c(CCCl)nc2c(Br)cc(Br)cc2c1=O`, the TGI with EKVX NSCLC is greater than 93.7 µM; in the assay with OVCAR-5 ovarian, greater than 71.5 µM; in the assay with SF-539 CNS, greater than 91.4 µM; in the assay with 786-0 renal, 81 µM; in the assay with UO-31 renal, greater than 75.6 µM; in the assay on OVCAR-8 ovarian it was greater than 100 µM. In addition, the TGI in the assay on HOP-92 NSCLC is greater than 90.8 µM; in the assay with SR leukemia it was 72 µM; in the assay with A549 NSCLC, greater than 100 µM.
